Tests used:
[1] = target: T1, arrestin-1 (monomerizing mutant F85A, F197A) (Bos taurus, UniProt P08168, F197A/F85A); assay: Fluorescence anisotropy binding of fluorescein-labelled peptides to arrestin-1; set-up: species or system bovine
T1 construct: made in house; host or cells: E. coli NiCo (DE3) cells (New England Biolabs), pET-15b vector
Source text: (§1) Synthesized cDNAs of bovine arrestin-1, human arrestin-2 and human arrestin-3 were ordered from Genewiz, amplified by PCR and cloned (Supplementary Information Table 5) into the pET-15b vector (Novagen), using the Gibson Assembly protocol. The constructs contained an N-terminal hexa histidine tag linked by a linker that contained a Tobacco Etch Virus cleavage site (TEV; […]). PCR was used to introduce the monomerizing arrestin-1 mutations (F85A, F197A)[58]. Note that this mutant was employed for fluorescence anisotropy, trypsin digestion, and NMR experiments. Wild-type arrestin-2 and -3 were used for fluorescence anisotropy and trypsin digestion experiments. […] The arrestin-1 in this construct had the wild-type sequence. Note that this construct differs slightly from that previously published[59],[60] and was optimized for purification. We verified the functionality of this fusion construct using the standard centrifugal pull-down assay using phosphorylated rhodopsin in native ROS membranes.
0.1–0.2 mg of lyophilized peptide was dissolved in 50 µl of 50 mM phosphate-buffered saline (PBS) buffer at pH 7.0, and then two molar equivalents of fluorescein-5-maleimide dye stock dissolved in dimethylsulfoxid was added. The reaction was carried out at RT in the dark. After 1 h the reaction was topped up with 1 ml of ice-cold 100% acetone and stored until the next day at −20 °C. The precipitated peptide was centrifuged (13,000 × g) for 10 min. The labeled and precipitated peptide was sedimented, and the supernatant was removed. The peptide was resuspended again in ice-cold acetone, stored for 1 h at −20 °C and centrifuged (13,000 × g) for 10 min. […] The precipitated peptide was dried at RT in the dark. It was dissolved in 50 µl of 20 mM Bis-Tris propane pH 7.0 and 150 mM NaCl and its concentration was determined by absorbance. A molar extinction coefficient of 70,000/M/cm at pH 7.0 was assumed for calculating the concentration of the labeled peptide stock.
An 11-step serial dilution series of arrestin in 20 mM Bis-Tris propane pH 7.0, 150 mM NaCl, 8 mM 2‑mercaptoethanol, 2% (w/w) BSA, 0.02% (v/v) Tween-20 was prepared and transferred to a black high-bottom 384-well plate (Greiner). As control for free peptide, a position with only buffer was included. The peptide was added at a final concentration of 20 nM to each well. The plate was closed by a clear cover and vortexed for 15 s. Afterwards it was centrifuged (800 × g) for 2 min and stored at RT for 20 min. The reading was performed by default settings of PHERAstar plate-reader (BMG Labtech) and excitation‑/emission-wavelengths of 485 nm (12 nm bandpass)/520 nm (30 nm bandpass) were used. The analysis was performed using Origin2016 (Microcal Inc) software by fitting the data to a one-to-one binding model:2 r=R0+△R*P/Kd+P, where r stands for anisotropy, R0 stands for anisotropy of the ligand, ΔR stands for anisotropy of the complex minus anisotropy of the ligand, P stands for the concentration of protein, and Kd stands for the dissociation constant of the ligand.

arrestin-2 = assay: Fluorescence anisotropy binding of fluorescein-labelled peptides to arrestin-2; set-up: species or system human
Source text: as §1
0.1–0.2 mg of lyophilized peptide was dissolved in 50 µl of 50 mM phosphate-buffered saline (PBS) buffer at pH 7.0, and then two molar equivalents of fluorescein-5-maleimide dye stock dissolved in dimethylsulfoxid was added. The reaction was carried out at RT in the dark. […] It was dissolved in 50 µl of 20 mM Bis-Tris propane pH 7.0 and 150 mM NaCl and its concentration was determined by absorbance. […]

arrestin-1 (F85A, F197A) = assay: Limited trypsin digestion of arrestin-1 in presence of peptide; type: biochemical, bovine; details: arrestin:peptide 1:1.2, 35 °C, SDS PAGE
Source text: as §1
Arrestin (60 µg) was mixed at a 1 to 1.2 molar ratio with peptide and preincubated at RT for 5 min before 1 μl of 0.15 mg/ml trypsin stock was added. The enzymatic digestion was carried out at 35 °C (20 mM Bis-Tris propane pH 7.0, 150 mM NaCl, 10 mM 2‑Mercaptoethanol and 2 mM EDTA). At certain time points (5, 15, 30, 60, 90 min), 5 μl aliquots were quenched with heat incubation in the presence of 20 μl SDS loading buffer (95 °C, 5 min) and then subjected to SDS PAGE. Bands were visualized with InstantBlue (Expedeon).

T1 sequence (P08168 whole entry F85A/F197A): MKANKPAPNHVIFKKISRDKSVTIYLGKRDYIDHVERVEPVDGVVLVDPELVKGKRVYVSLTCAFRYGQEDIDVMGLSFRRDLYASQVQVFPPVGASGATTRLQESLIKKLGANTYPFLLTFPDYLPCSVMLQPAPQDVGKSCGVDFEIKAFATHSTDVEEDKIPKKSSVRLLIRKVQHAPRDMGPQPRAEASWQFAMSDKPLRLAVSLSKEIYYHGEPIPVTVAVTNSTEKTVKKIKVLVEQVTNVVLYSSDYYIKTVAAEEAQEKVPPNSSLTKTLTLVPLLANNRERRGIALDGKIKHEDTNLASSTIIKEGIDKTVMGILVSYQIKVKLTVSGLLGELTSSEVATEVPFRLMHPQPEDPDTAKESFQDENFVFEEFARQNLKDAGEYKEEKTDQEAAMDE

Sequence: CDDEASTTVSKTETSQVAPA [5P, multiply phosphorylated rhodopsin C-terminus peptide lacking key site pS343]
- binding to arrestin-1 (in words) [1]: significant loss of affinity
- binding to arrestin-2 (in words) (arrestin-2): bound well
- limited trypsin digest pattern of arrestin-1 (conformational change, C-tail displacement) (arrestin-1 (F85A, F197A)): inability to induce conformational changes

— PMC6424980, “Distinct G protein-coupled receptor phosphorylation motifs modulate arrestin affinity and activation and global conformation” (Nature Communications, 2019)
